From BindingDB's records for patent US10646492 (Incyte Corporation; Incyte Holdings Corporation, 2020)

target: T1, Phosphatidylinositol 4,5-bisphosphate 3-kinase catalytic subunit delta isoform (Homo sapiens, UniProt O00329); assay: Scintillation Proximity Assay
T1 sequence (O00329 whole entry): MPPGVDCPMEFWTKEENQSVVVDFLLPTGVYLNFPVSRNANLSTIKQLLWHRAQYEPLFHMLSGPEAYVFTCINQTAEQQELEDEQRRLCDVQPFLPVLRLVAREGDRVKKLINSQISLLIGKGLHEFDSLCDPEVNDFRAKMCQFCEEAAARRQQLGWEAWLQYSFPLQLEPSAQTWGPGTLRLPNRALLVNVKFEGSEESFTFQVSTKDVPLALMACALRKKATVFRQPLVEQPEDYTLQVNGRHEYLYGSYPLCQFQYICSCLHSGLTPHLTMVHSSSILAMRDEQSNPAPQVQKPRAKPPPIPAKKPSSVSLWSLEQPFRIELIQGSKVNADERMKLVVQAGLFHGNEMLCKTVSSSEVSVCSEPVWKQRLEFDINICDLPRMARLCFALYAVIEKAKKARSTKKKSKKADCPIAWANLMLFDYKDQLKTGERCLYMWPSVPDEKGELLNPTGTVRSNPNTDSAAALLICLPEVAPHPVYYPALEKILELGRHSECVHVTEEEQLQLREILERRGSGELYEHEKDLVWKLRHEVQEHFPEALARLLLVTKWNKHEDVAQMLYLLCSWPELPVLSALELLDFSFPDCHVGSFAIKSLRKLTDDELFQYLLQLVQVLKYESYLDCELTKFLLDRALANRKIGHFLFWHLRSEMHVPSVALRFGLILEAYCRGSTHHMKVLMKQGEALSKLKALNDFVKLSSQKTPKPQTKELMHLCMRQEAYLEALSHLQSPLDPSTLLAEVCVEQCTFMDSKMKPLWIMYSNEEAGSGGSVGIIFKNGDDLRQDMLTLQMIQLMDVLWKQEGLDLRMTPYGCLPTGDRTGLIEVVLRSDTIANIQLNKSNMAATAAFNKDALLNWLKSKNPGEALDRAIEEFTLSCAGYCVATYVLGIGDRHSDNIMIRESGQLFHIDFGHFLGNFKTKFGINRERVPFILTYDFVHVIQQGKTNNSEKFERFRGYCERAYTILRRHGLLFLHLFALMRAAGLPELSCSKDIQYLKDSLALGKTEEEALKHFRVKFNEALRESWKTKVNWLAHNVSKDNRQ
Method: The kinase reaction was conducted in polystyrene 384-well matrix white plate from Thermo Fisher Scientific in a final volume of 25 uL. Inhibitors were first diluted serially in DMSO and added to the plate wells before the addition of other reaction components. The final concentration of DMSO in the assay was 0.5%. The PI3K assays were carried out at room temperature in 20 mM MOPS, pH 6.7, 10 mM MgCl2, 5 mM DTT and CHAPS 0.03%. Reactions were initiated by the addition of ATP, the final reaction mixture consisted of 20 uM PIP2, 20 uM ATP, 0.2 uCi [gamma-33P]ATP, 4 nM PI3Kdelta. […] 25 mM EDTA, 400 uM ATP. The final concentration of SPA beads was 1.0 mg/mL. After the plate sealing, plates were shaken overnight at room temperature and centrifuged at 1800 rpm for 10 minutes, the radioactivity of the product was determined by scintillation counting on Topcount (PerkinElmer).

| SMILES | IC50 |
| --- | --- |
| COc1c([C@H](C)n2cc(C)c3c(N)ncnc32)cc(Cl)c(C#N)c1C1CN([C@@H](C)CO)C1 [US10646492, Example 362] | < 10 nM |
| CCOc1c(C(C)n2cc(C)c3c(N)ncnc32)cc(Cl)c(C#N)c1C1CN([C@@H](C)CO)C1 (stereo partly drawn) [US10646492, Example 309] | < 10 nM |
| COc1c(C(C)n2nc(C)c3c(N)ncnc32)cc(Cl)c(C)c1-c1ccnc(C(=O)C(C)C)c1 (stereo not drawn) [US10646492, Example 16] | < 10 nM |
